The values below come from patent US10266484B2, “Biodegradable lipids for the delivery of active agents” (ALNYLAM PHARMACEUTICALS, INC., priority 2010, dated 2019).

Data set [1] can be described thus: Lipid concentration and pharmacokinetics in the plasma of mice after intravenous administration. Format: in vivo. To be noted: mouse, male C57BL mice, lipid dose 0.3 mg/kg. As for the experimental part:
(§1) A study was conducted to determine the lipid profile and tissue clearance in mice for cationic lipids according to the present invention.
(§2) Male mice (C57BL, 20-30 g) were separated into four groups and administered (intravenously) either Compound 1, 2 or 3 of the present invention, or a Reference Lipid, as shown below in Table 20.
(§3) The mice were not fasted. Blood, liver and spleen samples were collected (two samples per time point per group) at 0.17, 8, 24, 72, 168, 336 and 672 hours post dose.

A short description of data set [2]: Concentration of metabolites of compounds 1-3 in the plasma of mice. Format: in vivo, mice (C57BL). As for the experimental part: as §2, §3
All measurements after 24 hours (including those taken at 72, 168, 336, and 672 hours post-administration) were below the level of quantification (BLQ).

The nature of data set [3]: Concentration of mono-acid and di-acid metabolites in the liver of mice. Format: in vivo, mice (C57BL). To be noted: 0.3 mg/kg intravenous. How it is done:
as §2, §3
The concentration of these metabolites was measured in the liver. All measurements after 24 hours (including those taken at 72, 168, 336, and 672 hours post-administration) were below the level of quantification (BLQ).

The nature of data set [4]: Lipid concentration and pharmacokinetics in the liver of mice after intravenous administration. The format is in vivo. To be noted: mouse, male C57BL mice, lipid dose 0.3 mg/kg. How it is done:
as §1, §2, §3

Data set [5] is described as follows: Concentration of metabolites of compounds 1-3 in the spleen of mice. The format is in vivo, mice (C57BL). How it is done: as §2, §3
The nature of data set [6]: Study to determine lipid profiles and tissue clearance in mice (overall conclusion). The format is in vivo, mice (C57BL). The note with it: liver, spleen and plasma (FIGS. 1, 3, 4; Tables 22, 24, 26). How it is done:
as §1, §2, §3

Data set [7] in a line: Lipid concentration and pharmacokinetics in the spleen of mice after intravenous administration. Format: in vivo. To be noted: mouse, male C57BL mice, lipid dose 0.3 mg/kg; for MRT last: read-out: MRT0-t (mean residence time). How it is done: as §1, §2, §3
The mark [8] stands for this setting: read-out: MRT0-t (mean residence time).

As a reminder, the AUC is concentration integrated over time. High values mean more exposure, low ones less exposure. Broadly, the Cmax is the maximum level reached in the sampled fluid or tissue. `CCCCCC/C=C\COC(=O)CCCCCCCC(CCCCCCCC(=O)OC/C=C\CCCCCC)OC(=O)CCCN(C)C` [Compound 1, di((Z)-non-2-en-1-yl) 9-((4-(dimethylamino)butanoyl)oxy)heptadecanedioate]: the results for the AUC in data set [1], in data set [4] and in data set [7] were 155 µg·h/mL, 4.59 µg·h/mL and 42 µg·h/mL, respectively. Further, the Cmax in data set [1] came out at 38800 ng/mL; in data set [4] it was 1140 ng/mL; in data set [7], 7460 ng/mL. In addition, the “Concentration of di-acid metabolite in the plasma” value in data set [2] (8 hr post dose) and in data set [2] (24 hr post dose) was “BLQ” throughout. Moreover, the “Concentration of mono-acid metabolite in the plasma” value in data set [2] (8 hr post dose) and in data set [2] (24 hr post dose) was “BLQ” in each case. In addition, in data set [3] (24 hr post dose), the Di-acid metabolite concentration entry is “BLQ”. Also, in data set [3] (24 hr post dose), the Mono-acid metabolite concentration entry was “BLQ”. The “Concentration of di-acid metabolite in the spleen” value in data set [5] (8 hr post dose), in data set [5] (24 hr post dose), in data set [5] (72 hr post dose), in data set [5] (168 hr post dose), in data set [5] (336 hr post dose) and in data set [5] (672 hr post dose) was “BLQ” each time. Further, the “Concentration of mono-acid metabolite in the spleen” value in data set [5] (24 hr post dose), in data set [5] (72 hr post dose), in data set [5] (168 hr post dose), in data set [5] (336 hr post dose) and in data set [5] (672 hr post dose) was “BLQ” in each case. The “Tissue clearance and activity compared to the Reference Lipid” value in data set [6] was “dramatically improved tissue clearance and activity”. The MRT last in data set [7] was 2.8 h.

Consider `CCOC(=O)CCCC/C=C\CCCCCCCCC(CCCCCCCC/C=C\CCCCC(=O)OCC)OC(=O)CCCN(C)C` [Compound 2], for which the AUC was 116 µg·h/mL in data set [1], 0.436 µg·h/mL in data set [4] and 238 µg·h/mL in data set [7]. Moreover, the Cmax in data set [1] was found to be 28800 ng/mL; in data set [4], 118 ng/mL; in data set [7] it was 13600 ng/mL. In addition, the “Concentration of di-acid metabolite in the plasma” value in data set [2] (24 hr post dose) is recorded as “BLQ”. Further, the “Concentration of mono-acid metabolite in the plasma” value in data set [2] (24 hr post dose) is “BLQ”. Further, the Di-acid metabolite concentration entry in data set [3] (24 hr post dose) was “BLQ”. Moreover, the Mono-acid metabolite concentration result in data set [3] (24 hr post dose) was “BLQ”. Besides, the “Concentration of di-acid metabolite in the spleen” value in data set [5] (24 hr post dose), in data set [5] (72 hr post dose), in data set [5] (168 hr post dose), in data set [5] (336 hr post dose) and in data set [5] (672 hr post dose) was “BLQ” in each case. Moreover, the “Concentration of mono-acid metabolite in the spleen” value in data set [5] (72 hr post dose), in data set [5] (168 hr post dose), in data set [5] (336 hr post dose) and in data set [5] (672 hr post dose) was “BLQ” each time. In data set [6], the “Tissue clearance and activity compared to the Reference Lipid” value was “dramatically improved tissue clearance and activity”. For the same compound, the MRT last in data set [7] is 11.1 h.

For `COC(=O)CCCCCCC/C=C\CCCCCCCCC(CCCCCCCC/C=C\CCCCCCCC(=O)OC)OC(=O)CCCN(C)C` [Compound 3], the AUC in data set [1] amounted to 122 µg·h/mL; in data set [7], 18.7 µg·h/mL. Also, the Cmax was 30600 ng/mL in data set [1], 208 ng/mL in data set [4] and 4370 ng/mL in data set [7]. The “Concentration of mono-acid metabolite in the plasma” value in data set [2] (8 hr post dose) and in data set [2] (24 hr post dose) was “BLQ” in each case. Moreover, the Di-acid metabolite concentration result in data set [3] (8 hr post dose) and in data set [3] (24 hr post dose) was “BLQ” in each case. Besides, the Mono-acid metabolite concentration entry in data set [3] (8 hr post dose) and in data set [3] (24 hr post dose) was “BLQ” each time. The “Concentration of mono-acid metabolite in the spleen” value in data set [5] (24 hr post dose), in data set [5] (72 hr post dose), in data set [5] (168 hr post dose), in data set [5] (336 hr post dose) and in data set [5] (672 hr post dose) was “BLQ” each time. Besides, the “Concentration of di-acid metabolite in the spleen” value in data set [5] (672 hr post dose) is recorded as “BLQ”. Also, in data set [6], the “Tissue clearance and activity compared to the Reference Lipid” value is “dramatically improved tissue clearance and activity”. For the same compound, in data set [7], the MRT last came to 0.7 h.

Turning to `CCCCC/C=C\C/C=C\CCCCCCCCOCC(CN(C)C)OCCCCCCCC/C=C\C/C=C\CCCCC` (centres unmarked) [Reference Lipid, reference compound], the AUC in data set [1] was 63.8 µg·h/mL; in data set [4], 6950 µg·h/mL; in data set [7], 3430 µg·h/mL. Moreover, the Cmax in data set [1] was 2110 ng/mL; in data set [4], 22400 ng/mL; in data set [7] it was 9150 ng/mL. Moreover, the MRT last amounted to 201 h in data set [1] (setting [8]), 221 h in data set [4] (setting [8]) and 230 h in data set [7].
